Reference: publication PMC10244169, “Psychedelics promote plasticity by directly binding to BDNF receptor TrkB” (Nature Neuroscience, 2023)

Columns and labels:
[1] = target: T1, TrkB:PLCγ1 colocalization (Rattus norvegicus, UniProt Q63604); experiment: dSTORM/TIRF single-molecule colocalization in dendritic spines of hippocampal neurons; assay type: cell-based; details: 100 nM, 1 h; for Manders colocalization coefficient, group mean (5b) / Manders colocalization coefficient, group mean (5c): averaged per neuron; for Manders colocalization coefficient, group mean (5b): vehicle 0.2835; for Manders colocalization coefficient, group mean (5c): vehicle 0.3968
T1 construct: endogenous in cells; host or cells: rat hippocampal neuronal cultures (DIV21)
Protocol: Then, dishes were fixed with 4% paraformaldehyde (PFA) containing 0.1 µm TetraSpeck beads (Invitrogen, T7279; 1:100). After washing with PBS, dishes were incubated with the blocking buffer (0.1% Triton X-100, 0.05% Tween-20, 10% normal donkey serum, 1% BSA and 0.1% gelatin in PBS) for 1 h at room temperature. Next, dishes were incubated with goat anti-TrkB (R&D Systems, AF1494; 1:100) and rabbit anti-PLCγ1 (Cell Signaling Technologies, 5690S; 1:100) primary antibodies diluted in detergent-free blocking buffer overnight at 4 °C. After washing with PBS, dishes were incubated with Alexa Fluor 647-conjugated donkey anti-goat (Invitrogen, A32849; 1:500) and CF568-conjugated donkey anti-rabbit (Biotium, 20098; 1:500) secondary antibodies in PBS. Dishes were washed and stored in PBS until imaging. For dSTORM/TIRF, we used fresh blinking buffer (0.5 mg ml^−1 glucose oxidase, 40 µg ml^−1 catalase, 10% glucose, 10 mM NaCl, 10 mM cysteamine and 50 mM Tris–HCl, pH 8.0). We used a Nikon Eclipse Ti-E N-STORM/TIRF microscope equipped with an ApoTIRF 100×/1.49 numerical aperture (NA) objective, a Perfect Focus System for Z focus stabilization, an Andor iXon + 897 back-illuminated EMCCD camera (512 × 512), laser lines 405 nm (100 mW), 561 nm (150 mW) and 647 nm (300 mW) and a 405/488/561/647 nm laser quad band filter cube. Image acquisition was performed with the central 256 × 256 pixels and a total of 20,000 frames (exposure time of 15 ms) for both channels using the NIS-Elements Advanced Research software (Nikon). The 405 nm laser was progressively raised to maintain a constant number of localizations per frame. After chromatic aberration correction by correlation with the fluorescent bead fiducials, fitting of the blinking events to build the single-molecule localization coordinate map and drift correction were performed using the Huygens Localizer 21.04 software (Scientific Volume Imaging). Before identifying particles, the first 512 frames of each channel were discarded, a temporal filter length (factor 30) was applied to determine background signal, and data were prefiltered through the standard deviation of a Gaussian filter (σ = 1.0). Next, a threshold calculated from the standard deviation of unfiltered data was multiplied by a factor of 0.75 for the red and 1.5 for the far-red channels and applied to distinguish particles from the background. Pixels from filtered data with values larger than the threshold were considered as candidates for single-molecule localizations. Pixels in filtered data with higher values than surrounding pixels were detected as local maxima. The least-squares fitting was applied for subpixel localization of detected particles, with a fixed full width at half maximum of the Gaussian point spread function of 256 nm. Finally, the resulting single-molecule localization coordinate maps were analyzed with Coloc-Tesseler 1.0 (ref. [79]) by an experimenter blinded to treatment to compute the Manders colocalization coefficients of TrkB (M^TrkB) and PLCγ1 (M^PLCγ1) in dendritic spines on the basis of their overlapping Voronoi diagrams.

[2] = target: T2, TrkB (Rattus norvegicus, UniProt Q63604); experiment: Competition binding with biotinylated R,R-HNK; details: ext fig 1g
T2 construct: expressed in transfected cells; host or cells: HEK293T
Protocol: Binding assays were performed as previously described with minor modifications. […] Samples from mouse embryo (E18) brains were also lysed, vortexed, sonicated and centrifuged for binding assays. Plates were then washed with PBS. […] For the competition binding assays with biotinylated R,R-HNK, the amino-biotinylation of R,R-HNK was performed using a commercial kit (Thermo Scientific, EZ-Link NHS-PEG4 Biotinylation Kit, 21455) and the reaction monitored by MS. A mixture of biotinylated R,R-HNK (10 µM) and unlabeled compounds (1 pM to 10 µM) in PBS was added to the 96-well plates containing the immunoprecipitated TrkB and incubated for 1 h at room temperature. […] Luminescence was determined via streptavidin conjugated with horseradish peroxidase (HRP; Thermo Fisher Scientific, 21126; 1:5,000, 1 h at room temperature) in reaction with the Pierce ECL substrate (Thermo Fisher Scientific, 32106). Luminescence from blank wells that contained all reagents but the sample lysates was used to determine nonspecific binding. To obtain the binding curves, results from binding assays were fitted to the equation of specific binding with Hill slope from GraphPad Prism 9.2. To calculate koff values, results were fitted to the equation of dissociation of one phase exponential decay from GraphPad Prism 9.2.

[3] = target: T3, TrkB:PLCγ1 (Rattus norvegicus, UniProt Q63604); experiment: ELISA of TrkB:PLCγ1 interaction in neuronal cultures; assay type: cell-based
T3 construct: endogenous in cells; host or cells: rat cortical neuronal cultures (E18, DIV21)
Protocol: The phosphorylation of TrkB (pY816) and interaction with PLCγ1 were assessed by enzyme-linked immunosorbent assay (ELISA) as previously described[11],[80],[81] with minor modifications. Briefly, white 96-well plates (PerkinElmer, OptiPlate 96F-HB) were precoated with goat anti-TrkB (R&D systems, AF1494; 1:500, overnight, 4 °C) antibody in carbonate buffer (pH 9.8) and blocked with 3% BSA in PBS with 0.1% Tween-20 (PBS-T) for 2 h at room temperature. […] Samples were incubated overnight at 4 °C, and 24 h later plates were washed with PBS-T and incubated with either rabbit anti-phospho-TrkB(Tyr816) (Cell Signaling Technology, 4168S; 1:2,000), rabbit anti-PLCγ1 (Cell Signaling Technologies, 5690S; 1:2,000) or rabbit anti-Trk (Cell Signaling Technologies, 92991; 1:2,000) antibodies overnight at 4 °C. After washing with PBS-T, plates were incubated with HRP-conjugated goat anti-rabbit (Bio-Rad, 170–5046; 1:5,000, 1 h, room temperature) antibody, followed by more washing with PBS-T. Finally, the chemiluminescent signal was read after brief incubation with Pierce ECL substrate (Thermo Fisher Scientific, 32106). Luminescence from blank wells that contained all reagents but the sample lysates was used to determine background signal.

T1 sequence (Q63604 32-821): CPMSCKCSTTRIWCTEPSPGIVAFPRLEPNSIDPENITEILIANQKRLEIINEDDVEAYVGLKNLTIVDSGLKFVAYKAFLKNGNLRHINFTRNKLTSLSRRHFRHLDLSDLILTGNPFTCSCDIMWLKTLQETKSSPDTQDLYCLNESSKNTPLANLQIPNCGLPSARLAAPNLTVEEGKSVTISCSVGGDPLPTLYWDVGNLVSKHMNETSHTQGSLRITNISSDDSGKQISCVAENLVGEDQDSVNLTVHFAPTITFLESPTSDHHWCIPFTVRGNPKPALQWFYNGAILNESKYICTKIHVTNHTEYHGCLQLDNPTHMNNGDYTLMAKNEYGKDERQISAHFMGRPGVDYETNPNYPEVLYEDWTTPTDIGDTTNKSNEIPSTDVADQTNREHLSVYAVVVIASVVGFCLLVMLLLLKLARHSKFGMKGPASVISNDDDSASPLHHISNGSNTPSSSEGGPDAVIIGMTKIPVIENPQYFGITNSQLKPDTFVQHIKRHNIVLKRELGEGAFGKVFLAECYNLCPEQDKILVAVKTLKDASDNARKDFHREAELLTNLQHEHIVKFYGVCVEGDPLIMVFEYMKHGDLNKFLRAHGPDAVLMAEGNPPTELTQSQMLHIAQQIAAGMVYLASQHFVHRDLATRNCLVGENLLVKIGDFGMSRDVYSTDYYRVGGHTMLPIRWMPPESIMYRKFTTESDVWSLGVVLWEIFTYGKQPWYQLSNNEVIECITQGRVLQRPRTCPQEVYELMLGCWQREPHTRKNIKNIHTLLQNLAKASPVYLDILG
T2 sequence (Q63604 32-821): as above
T3 sequence (Q63604 32-821): as above

CCN(CC)C(=O)C1C=C2c3cccc4[nH]cc(c34)CC2N(C)C1 (centres unmarked) [LSD, lysergic acid diethylamide]
TrkB:PLCγ1 colocalization in dendritic spines [1]: increase TrkB:PLCγ1 colocalization in dendritic spines
Manders colocalization coefficient, group mean (5b) [1]: 0.6227
Manders colocalization coefficient, group mean (5c) [1]: 0.6899
K (one phase decay, best-fit) [2]: 638387713
Plateau (one phase decay, best-fit) [2]: 36.42
Span (one phase decay, best-fit) [2]: 48.28
Tau (one phase decay, best-fit) [2]: 1.57E-09
Y0 (one phase decay, best-fit) [2]: 84.7
TrkB interaction with PLCγ1 [3]: increases TrkB interaction with phospholipase C gamma 1 (PLCγ1)

CN(C)CCc1c[nH]c2cccc(O)c12 [PSI, psilocin]
TrkB:PLCγ1 colocalization in dendritic spines [1]: increase TrkB:PLCγ1 colocalization in dendritic spines
Manders colocalization coefficient, group mean (5b) [1]: 0.5082
Manders colocalization coefficient, group mean (5c) [1]: 0.7477
K (one phase decay, best-fit) [2]: 89050556
Plateau (one phase decay, best-fit) [2]: 38.6
Span (one phase decay, best-fit) [2]: 50.23
Tau (one phase decay, best-fit) [2]: 1.12E-08
Y0 (one phase decay, best-fit) [2]: 88.84
